Measurements reported in ChEMBL document CHEMBL3217658, “Scaffold-hopping from aminoglycosides to small synthetic inhibitors of bacterial protein biosynthesis using a pseudoreceptor model” (Medchemcomm, 2011).
pIC50: −log10 of the molar value. Values after ≈ are worked out from the molar mass of the structure shown. Active and inactive are the calls of the source. No cut-off for these calls is given here.

system: Escherichia coli; assay: Binding affinity to Escherichia coli ribosomal A-site assessed as inhibition of GFP biosynthesis at 500 uM by transcription/translation assay relative to chloramphenicol; conditions: not given

inhibition | Compound
inactive | CC(=O)N1[C@H](CO)CS[C@@H]1[C@H](O)[C@@H](O)[C@@H](O)[C@H](O)CO
64% | CC(O)CNCCNCc1cccc2ccccc12 (configuration not stated)
13% | O=c1[nH]c(=O)n2c(c1[N+](=O)[O-])NC(C(O)C(O)C(O)CO)C2O (configuration not stated)
inactive | NC(=O)c1ncn([C@H]2C[C@@H](CO)[C@H](O)[C@@H]2O)n1
61% | Nc1cc(NC2OC(CO)C(O)C(O)C2O)ccc1[N+](=O)[O-] (configuration not stated)
71% | COc1cccc(CNCCc2c[nH]c3ccccc23)c1OCc1ccccc1F
22% | Nc1[nH]c(C2OC(CO)C(O)C2O)nc1C(=O)NCc1ccccc1 (configuration not stated)
inactive | OCC(O)C(O)C(O)C(O)C1NNC(=S)NN1 (configuration not stated)
82% | COc1cc(CNCCc2c[nH]c3ccccc23)cc(Cl)c1OCC(N)=O
36% | CC(O)CNCCNCc1ccccc1 (configuration not stated)
inactive | CNCCCNCc1ccc(OCC(N)=O)c(OC)c1

system: Bacillus subtilis; assay: Antibacterial activity against Bacillus subtilis 168 assessed as growth inhibition at 0.5 to 500 uM after 20 hrs by microtiter broth dilution method; type: functional, organism-based; conditions: subsp. subtilis str. 168

Compound | growth inhibition (GI)
COc1cc(CNCCc2c[nH]c3ccccc23)cc(Cl)c1OCC(N)=O | inactive

molecular target: Transient receptor potential cation channel subfamily V member 1 (Homo sapiens, UniProt Q8NER1); assay: Inhibition of TRPV1-mediated membrane currents in human DRG neurons; conditions: not given
Sequence (Q8NER1 whole entry): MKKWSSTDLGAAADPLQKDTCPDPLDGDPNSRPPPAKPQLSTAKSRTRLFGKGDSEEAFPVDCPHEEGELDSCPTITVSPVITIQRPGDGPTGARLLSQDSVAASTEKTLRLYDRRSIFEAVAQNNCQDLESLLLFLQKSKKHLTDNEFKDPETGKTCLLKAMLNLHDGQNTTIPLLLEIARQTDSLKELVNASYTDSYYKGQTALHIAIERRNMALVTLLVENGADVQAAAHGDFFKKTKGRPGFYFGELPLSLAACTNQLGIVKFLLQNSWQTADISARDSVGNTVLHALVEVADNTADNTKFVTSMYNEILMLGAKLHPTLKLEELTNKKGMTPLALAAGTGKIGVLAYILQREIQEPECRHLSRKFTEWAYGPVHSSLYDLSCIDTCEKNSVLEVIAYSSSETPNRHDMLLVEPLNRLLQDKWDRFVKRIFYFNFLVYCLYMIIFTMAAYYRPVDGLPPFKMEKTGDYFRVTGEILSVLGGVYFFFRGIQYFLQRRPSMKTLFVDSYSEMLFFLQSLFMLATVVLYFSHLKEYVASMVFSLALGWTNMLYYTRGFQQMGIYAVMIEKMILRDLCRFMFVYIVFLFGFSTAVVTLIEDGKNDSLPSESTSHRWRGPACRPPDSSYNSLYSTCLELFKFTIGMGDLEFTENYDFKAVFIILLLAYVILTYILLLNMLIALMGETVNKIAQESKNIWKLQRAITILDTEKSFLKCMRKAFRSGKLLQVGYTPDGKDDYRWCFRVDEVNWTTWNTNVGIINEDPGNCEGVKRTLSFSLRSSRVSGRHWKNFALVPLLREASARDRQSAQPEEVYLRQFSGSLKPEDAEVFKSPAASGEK

pIC50 | Compound
6.40 | NC[C@@H]1O[C@H](O[C@H]2[C@@H](O)[C@H](O[C@@H]3[C@@H](O)[C@H](N)C[C@H](N)[C@H]3O[C@H]3O[C@H](CN)[C@@H](O)[C@H](O)[C@H]3N)O[C@@H]2CO)[C@H](N)[C@@H](O)[C@@H]1O [FRAMYCETIN]

system: Bacillus subtilis; assay: Antibacterial activity against Bacillus subtilis 168 assessed as growth inhibition after 20 hrs by microtiter broth dilution method; type: functional; conditions: subsp. subtilis str. 168, 20 h

MIC | Compound
250 µM (≈ 105 µg/mL) | COc1cc(CNCCc2c[nH]c3ccccc23)ccc1OCc1ccc(Cl)nc1
125 µM (≈ 50.6 µg/mL) | COc1cccc(CNCCc2c[nH]c3ccccc23)c1OCc1ccccc1F
63 µM (≈ 25.5 µg/mL) | COc1cc(CNCCc2c[nH]c3ccccc23)ccc1OCc1ccc(F)cc1

Compound | MIC
COc1cc(CNC(=O)CCCC/C=C/C(C)C)ccc1O [CAPSAICIN] | 63 µM (≈ 19.2 µg/mL)
